Data taken from patent EP4796125A1, “TREATMENT OF PATIENT WITH NEGATIVE P53 GENE MUTATION, POSITIVE KRAS GENE MUTATION AND POSITIVE BRCA MUTATION” (Ascentawits Pharmaceuticals, Ltd., priority 2023, dated 2025).

Columns and labels:
A549 cells = assay: Cell cycle G2/M arrest, PI staining and flow cytometry; type: cell-based; settings: 0.3-9 nM AST-3424 ± 5 µM Nutlin-3 (AST-3424 pre-treatment 2 hours), second experiment (Figure 10)
Method: The remaining operations were similar to those of the above experiment, and the compound treatment was as follows:
• For H460 cell line, 1% DMSO, adding 5 µM Nutlin-3 for treatment for 22 hours, adding 0.03 nM AST-3424 for treatment for 24 hours, adding 0.1 nM AST-3424 for treatment for 24 hours, adding 0.3 nM AST-3424 for treatment for 24 hours, and adding 1 nM AST-3424 for treatment for 24 hours; • For A549 cell line, 1% DMSO, adding 5 µM Nutlin-3 for treatment for 22 hours, adding 0.3 nM AST-3424 for treatment for 24 hours, adding 1 nM AST-3424 for treatment for 24 hours, adding […] AST-3424 for treatment for 24 hours.
For A549 cell line, • Adding 0.3 nM AST-3424 for pre-treatment for 2 hours, and then adding 5 µM Nutlin-3 for co-treatment for 22 hours; • Adding 1 nM AST-3424 for pre-treatment for 2 hours, and then adding 5 µM Nutlin-3 for co-treatment for 22 hours; • Adding 3 nM AST-3424 for pre-treatment for 2 hours, and then adding 5 µM Nutlin-3 for co-treatment for 22 hours; • Adding 9 nM AST-3424 for pre-treatment for 2 hours, and then adding 5 µM Nutlin-3 for co-treatment for 22 hours.

[1] = test system: γH2AX protein in H460 cells; assay: WB detection of γH2AX protein (DNA double-strand damage); type: cell-based; settings: AST-3424 alone or with 5 µM Nutlin-3, dose-dependent (Figures 24-26)
Source text: In the first experiment, the second experiment and the third experiment about the effect of the combination of AST-3424 and Nutlin-3 on Ser15-p53, Ser20-p53, Total p53, MDM2, and p21 proteins in H460 cells in Example 21, the applicant also performed WB detection of γH2AX protein.

H460 P53 KO #12 = assay: In vitro proliferation under normoxia (CTG, 72 hours), Example 26; type: cell-based, human; settings: Table 21
Method: (§1) • 1) H460 cell suspension was added to a 96-well plate (100 µL per well), with a cell density of 2000 cells/well. • 2) The cells were cultured overnight in a 37°C, 5% CO2 incubator. • 3) Compound Treatment
(§2) Monotherapy: 24 hours after cell plating, each well was supplemented with 99.5 µL of growth medium. Then, 0.5 µL of test compounds at different concentrations was added. The plate was gently shaken to ensure even mixing, and then placed in a 37°C, 5% CO2 incubator.
(§3) Combination therapy: 24 hours after cell plating, each well was supplemented with 99 µL of growth medium. Then, 0.5 µL of the combination compound Nutlin-3 was added. The plate was gently shaken to ensure even mixing, and then placed in an incubator for 2 hours. Then, 0.5 µL of test compounds at different concentrations was added. The plate was gently shaken to ensure even mixing, and then placed in a 37°C, 5% CO2 incubator. • 4) The cell plate was placed in the incubator for 72 hours. • 5) The cell plate to be tested was placed at room temperature and equilibrated for 30 minutes, and 100 µL of medium was discarded from each well. • 6) 25 µL of CTG reagent was added to each well, placed on a fast shaker to shake for 2 minutes, and placed at room temperature for 30 minutes (protected from light). • 7) The chemiluminescence signal value was read using a multifunctional microplate reader with a reading time of 1000 ms. • 8) IC50 values were calculated using Graph Pad Prism 5 software.
(§4) The p53 CRISPR/Cas9 KO plasmid (human) and p53 HDR plasmid (human) were purchased from Santa Cruz Company to construct H460 P53 KO cell lines, namely p53 knockout H460 cell lines. Three groups of H460 P53 KO cell lines were constructed and designated as H460 P53 KO # 1, H460 P53 KO # 7, and H460 P53 KO # 12.
(§5) The process for constructing p53 gene knockout cells is briefly described as follows: • H460 cells were plated in 6-well plates with 1 × 10^6 cells/well. • H460 cells were co-transfected with p53 CRISPR/Cas9 KO plasmid (h) (sc-416469) and p53 HDR plasmid (h) (sc-416469-HDR): 125 µL Opti-MEM + 1.25 µg each of the two plasmids + 5 µL P3000; 125 µL Opti-MEM + 15 µL liposome 3000 (increase volume, expected to increase transfection efficiency); they were co-incubated for 15 minutes, and then were added dropwise to the culture medium and mixed well.
(§6) After 48 h, 2 µg/mL puromycin was added for screening.
(§7) Two days later, the medium was replaced with fresh 1640 medium containing 1 µg/mL puromycin, and the medium was changed every two days.
(§8) When the cell colonies grew to a sufficient size, single colonies were picked and cultured.
(§9) When the cell number is sufficient, samples were collected for WB identification of the colonies. Colonies with no p53 expression were the p53 knockout H460 cell clones.
(§10) For the experimental procedures of this Example, please refer to the Experimental Procedure Overview in the section "Effects of compounds on in vitro H460 cell proliferation under normoxia" in Example 18.
(§11) Monotherapy: Compounds AST-3424/AST were separately administered in H460 and H460 P53 KO cell lines, respectively.
(§12) Combination therapy: Compounds AST-3424/AST were respectively used in combination with AST-3021, and respectively administeredin H460 and H460 P53 KO cell lines.
(§13) H460 P53 KO cell lines, i.e. H460 P53 KO # 1, H460 P53 KO # 7, H460 P53 KO # 12 cell lines, were used in experiments, respectively.

H460 P53 KO #1 = assay: as above; type: cell-based, human; settings: Table 21
Method: as §1, §2, §3, §4, §5, §6, §7, §8, §9, §10, §11, §12, §13

H460 P53 KO #7 = assay: as above; type: cell-based, human; settings: Table 21
Method: as §1, §2, §3, §4, §5, §6, §7, §8, §9, §10, §11, §12, §13

[2] = test system: PDX and CDX models with high expression of AKR1C3 enzyme; settings: WO2023/046060, Examples 1-9; cited from earlier work

With `C[C@H](OP(=O)(N1CC1)N1CC1)c1ccc([N+](=O)[O-])c(Oc2cccc(C(=O)N(C)C)c2)c1` [AST-3424] the “G2/M cell cycle arrest” value (A549 cells) was “induces concentration-dependent G2/M cell cycle arrest”, the “level of γH2AX protein” value [1] was “upregulate” and the IC50 (H460 P53 KO #12; Homo sapiens, NCI-H460, H460 P53 KO # 12, AST-3424 alone or + 3 µM AST-3021) was 1.99 nM. The “Ratio (monotherapy), knockout/wild” value (H460 P53 KO #12; IC50 in H460 P53 KO # 12 / H460 WT) was 8.65, the IC50 (H460 P53 KO #1; Homo sapiens, NCI-H460, H460 P53 KO # 1, AST-3424 alone or + 3 µM AST-3021) was 11.3 nM and the “Ratio (monotherapy), knockout/wild” value (H460 P53 KO #1; IC50 in H460 P53 KO # 1 / H460 WT) was 49.13. The IC50 (H460 P53 KO #7; Homo sapiens, NCI-H460, H460 P53 KO # 7, AST-3424 alone or + 3 µM AST-3021) was 23.1 nM, the “Ratio (monotherapy), knockout/wild” value (H460 P53 KO #7; IC50 in H460 P53 KO # 7 / H460 WT) was 100.43 and the anti-tumor effects [2] was “significant anti-tumor effects”. For the same compound, the tolerability [2] was “well tolerated”.
